Results published in patent US20060211705A1, “'N-(2-chloro-6-methylphenyl)-2-[[6-[4-(2-hydroxyethyl)-1-piperazinyl]-2-methyl-4-pyrimidinyl]amino]-5-thiazolecarboxamides metabolites” (priority 2005, published 2006).
Values belong to the compound of their own block, whether it stands above or below them.

Experiment: Radioactive metabolites in plasma, urine and feces after single oral dose of [14C] compound (I) to humans
Type: in vivo, human
Conditions: for Metabolites in Feces (0-168 hr), Human, % Dose / Metabolites in Feces (0-168 hr), Human, % Rad / Metabolites in Urine (0-168 hr), Human, % Dose / Metabolites in Urine (0-168 hr), Human, % Rad: oral 100-mg; for Metabolites in Feces (0-168 hr), Human, % Dose / Metabolites in Feces (0-168 hr), Human, % Rad: pooled fecal extracts 0-168 hr; for Metabolites in Urine (0-168 hr), Human, % Dose / Metabolites in Urine (0-168 hr), Human, % Rad: pooled urine 0-168 hr; for % Distribution of radioactive metabolites in pooled plasma, Human (2 h): oral 100-mg [14C] compound (I), plasma 2 h
Protocol: Plasma samples were segregated by collection time and equal volumes of individual plasma samples at a given time point were combined for biotransformation profiling.
The C-14 label was on the carbon-2 of the thiazole ring.
HPLC was performed on an Agilent 1100™ system equipped with binary pumps, autoinjector, and a column heater. A Phenomenex Synergy Polar-RP® column (4.6×250 mm, 5 micron) was used for metabolite separation. All HPLC analyses were performed at 1 mL/min flow rate at 35° C. The HPLC mobile phase consisted of (A) water with 0.1% formic acid and (B) acetonitrile with 0.1% formic acid.
Each fraction of column eluent was evaporated to dryness on a Savant Speed-Vac (Savant Instruments Inc., Holbrook, N.Y.) and counted for radioactivity with a Packard Top Count® microplate scintillation analyzer (Packard Biosciences, Downers Grove, Ill.).
The volumes of pooled plasma processed for HPLC analysis for rat, monkey and human ranged between 1.5 and 8.0 mL. Pooled plasma samples were extracted with methanol/acetonitrile (1:1) at a ratio of 2 volumes solvent to 1 volume of plasma. The mixtures were vortex mixed, sonicated for 5 min, and centrifuged at 3500 rpm for 10 min. The supernatants were transferred into new tubes. The remaining pellets were extracted two more times with 3 mL of methanol/acetonitrile (1:1). The supernatants were combined and evaporated to dryness in a Savant Speed-Vac (Savant Instruments, Inc., Holbrook, N.Y.). The residue was reconstituted into 0.35 to 0.45 mL of 30% acetonitrile in water, vortex mixed and centrifuged at 13000 rpm for 5 min (American Scientific Products Biofuge A centrifuge, Heraeus Sepatech GmbH, Germany). The supernatant was injected onto the HPLC for profiling. Aliquots of the reconstituted samples (30 μl) were also counted on the liquid scintillation counter (LSC) to determine the recovery of radioactivity.
The pooled monkey and human urine samples (3-5 mL) were extracted with 2 volumes of acetonitrile/acetone (1:1). The mixtures were vortex mixed, sonicated and centrifuged at 3500 rpm for 10 min. The supernatants were evaporated to dryness. The residue was suspended in 0.3-0.5 mL of 30% acetonitrile in water and centrifuged at 13000 rpm for 5 min. Aliquots of the supernatants were injected onto the HPLC or analyzed by LSC for radioactivity recovery. Pooled urine samples from BDC monkeys and rats were centrifuged at 13000 rpm for 10 min and injected onto the HPLC for profiling without further treatment.
The amount of fecal homogenate used for analysis was 0.20, 0.19 and 0.51 g for rat, monkey and human, respectively. Each pooled fecal homogenate was extracted by addition of 3 volumes of acetonitrile/methanol (1:1) to 1 volume of fecal homogenate and mixed on a vortex mixer. The mixture was sonicated for 5 min and then centrifuged at 3000 rpm for 10 min. The supernatants were removed and saved. The extraction was repeated two additional times and the supernatants were combined and evaporated to dryness on a Savant Speed-Vac. […] An aliquot of the supernatant was injected onto the HPLC or analyzed by LSC for radioactivity recovery.
The LC/MS system used for analysis of plasma, urine, bile, and fecal samples consisted of an Agilent 1100™ HPLC system connected to a Finnigan LCQ-DecaXP mass spectrometer. Samples were analyzed using positive electrospray ionization. The capillary temperature used for analysis was 320° C., and the nitrogen gas flow rate, spray current, and voltages were adjusted to give maximum sensitivity. The HPLC conditions were described in section 3.3.1.
Counts per min (CPM) were determined on a Packard TopCount NXT microplate scintillation and luminescence counter. For each injection, the average CPM value (2-4 CPM) obtained from fractions between 2-3 min (column void) in the chromatogram was subtracted from the CPM value of each fraction. Biotransformation profiles were prepared by plotting the background subtracted CPM values against time-after-injection.

SMILES: Cc1nc(Nc2ncc(C(=O)Nc3c(C)cccc3Cl)s2)cc(N2CCNCC2)n1 [M4 (II)]
Metabolites in Feces (0-168 hr), Human, % Dose: 2.6%
Metabolites in Feces (0-168 hr), Human, % Rad: 3.1%
Metabolites in Urine (0-168 hr), Human, % Dose: 0.05%
Metabolites in Urine (0-168 hr), Human, % Rad: 1.3%

SMILES: Cc1nc(Nc2ncc(C(=O)Nc3c(C)cccc3Cl)s2)cc(N2CC[N+]([O-])(CCO)CC2)n1 [M5 (III)]
% Distribution of radioactive metabolites in pooled plasma, Human (2 h): 4.5%
Metabolites in Urine (0-168 hr), Human, % Dose: 1.4%
Metabolites in Urine (0-168 hr), Human, % Rad: 39.8%

SMILES: Cc1nc(Nc2ncc(C(=O)Nc3c(C)cccc3Cl)s2)cc(N2CCN(CC(=O)O)CC2)n1 [M6 (IV), 2-(4-(6-(5-((2-Chloro-6-methylphenyl)carbamoyl)thiazol-2-ylamino)-2-methylpyrimidin-4-yl)piperazin-1-yl)acetic acid]
% Distribution of radioactive metabolites in pooled plasma, Human (2 h): 3.6%
Metabolites in Feces (0-168 hr), Human, % Dose: 8.9%
Metabolites in Feces (0-168 hr), Human, % Rad: 10.4%
Metabolites in Urine (0-168 hr), Human, % Dose: 0.05%
Metabolites in Urine (0-168 hr), Human, % Rad: 1.3%

Now from value to compound:

% Distribution of radioactive metabolites in pooled plasma, Human (2 h): 12.5%
Metabolites in Feces (0-168 hr), Human, % Dose: 31.2%
Metabolites in Feces (0-168 hr), Human, % Rad: 36.6%
Metabolites in Urine (0-168 hr), Human, % Dose: 0.2%
Metabolites in Urine (0-168 hr), Human, % Rad: 4.1%
SMILES: Cc1nc(Nc2ncc(C(=O)Nc3c(C)cc(O)cc3Cl)s2)cc(N2CCN(CCO)CC2)n1 [M20 (V)]

% Distribution of radioactive metabolites in pooled plasma, Human (2 h): 3.1%
Metabolites in Feces (0-168 hr), Human, % Dose: 4.0%
Metabolites in Feces (0-168 hr), Human, % Rad: 4.7%
Metabolites in Urine (0-168 hr), Human, % Dose: 0.2%
Metabolites in Urine (0-168 hr), Human, % Rad: 6.0%
SMILES: Cc1nc(Nc2ncc(C(=O)Nc3c(Cl)cccc3CO)s2)cc(N2CCN(CCO)CC2)n1 [M24 (VI), N-(2-chloro-6-(hydroxymethyl)phenyl)-2-(6-(4-(2-hydroxyethyl)piperazin-1-yl)-2-methylpyrimidin-4-ylamino)thiazole-5-carboxamide]

% Distribution of radioactive metabolites in pooled plasma, Human (2 h): 25.5%
Metabolites in Feces (0-168 hr), Human, % Dose: 19.1%
Metabolites in Feces (0-168 hr), Human, % Rad: 22.4%
Metabolites in Urine (0-168 hr), Human, % Dose: 0.1%
Metabolites in Urine (0-168 hr), Human, % Rad: 3.6%
SMILES: Cc1nc(Nc2ncc(C(=O)Nc3c(C)cccc3Cl)s2)cc(N2CCN(CCO)CC2)n1 [Parent (I), N-(2-Chloro-6-methylphenyl)-2-[[6-[4-(2-hydroxyethyl)-1-piperazinyl]-2-methyl-4-pyrimidinyl]amino]-5-thiazolecarboxamide]
